Results published in patent US9199999B2, “Substituted imidazopyrazines” (Bayer Intellectual Property GmbH, priority 2010, dated 2015).
Where two headings read alike, the source gives them in different places.

Tests used:
human kinase Mps-1 [1] = molecular target: T1, human kinase Mps-1 (Homo sapiens (Human), UniProt P33981); assay: biochemical
human kinase Mps-1 [2] = molecular target: T1, human kinase Mps-1; settings: read-out: Mps-1 IC50; N-terminally GST-tagged human full length recombinant Mps-1; 10 μM ATP; 1 μM biotinylated peptide substrate; 60 min at 22° C.

T1 sequence (P33981 whole entry): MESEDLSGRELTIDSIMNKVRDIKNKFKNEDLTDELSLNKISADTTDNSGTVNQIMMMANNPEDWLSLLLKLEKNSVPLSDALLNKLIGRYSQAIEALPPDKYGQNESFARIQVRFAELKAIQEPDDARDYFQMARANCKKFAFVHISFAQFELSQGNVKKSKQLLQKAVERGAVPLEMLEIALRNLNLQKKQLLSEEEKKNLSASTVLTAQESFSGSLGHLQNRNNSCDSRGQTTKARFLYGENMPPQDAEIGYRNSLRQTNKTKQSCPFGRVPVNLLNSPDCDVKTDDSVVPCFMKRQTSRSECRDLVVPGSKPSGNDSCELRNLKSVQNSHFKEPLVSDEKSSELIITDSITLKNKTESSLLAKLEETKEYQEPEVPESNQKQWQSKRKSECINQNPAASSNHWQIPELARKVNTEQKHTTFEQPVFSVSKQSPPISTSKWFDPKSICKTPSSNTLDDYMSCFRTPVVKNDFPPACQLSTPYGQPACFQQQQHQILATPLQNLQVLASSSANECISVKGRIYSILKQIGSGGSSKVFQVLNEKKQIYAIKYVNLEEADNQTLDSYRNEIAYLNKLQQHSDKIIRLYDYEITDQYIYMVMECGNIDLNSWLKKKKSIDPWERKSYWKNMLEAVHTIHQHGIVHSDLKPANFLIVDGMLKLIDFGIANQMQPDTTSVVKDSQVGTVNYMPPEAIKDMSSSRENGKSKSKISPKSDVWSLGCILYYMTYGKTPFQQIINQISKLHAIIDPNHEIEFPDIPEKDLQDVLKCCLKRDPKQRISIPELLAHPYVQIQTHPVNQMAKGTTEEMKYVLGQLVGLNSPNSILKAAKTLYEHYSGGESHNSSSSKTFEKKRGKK

SMILES	IC50 (human kinase Mps-1 [1])	IC50 (human kinase Mps-1 [2])
Cc1cc(-c2cnc3c(NCCC(F)(F)F)nc(C#CCO)cn23)ccc1C(=O)NC1C[C@@H]1F (stereo in doubt) [Example 76, N-[rel(1S,2S)-2-fluorocyclopropyl]-4-{6-(3-hydroxyprop-1-yn-1-yl)-8-[(3,3,3-trifluoropropyl)amino]imidazo[1,2-a]pyrazin-3-yl}-2-methylbenzamide]	43 nM	–
NCCCNc1nc(C#CCO)cn2c(-c3ccc(-c4cnc(C5CC5)[nH]4)cc3)cnc12 [Example 60, 3-{8-[(3-Aminopropyl)amino]-3-[4-(2-cyclopropyl-1H-imidazol-5-yl)phenyl]imidazo[1,2-a]pyrazin-6-yl}prop-2-yn-1-ol]	230 nM	–
COC1(NC(=O)c2ccc(-c3cnc4c(NCCC(F)(F)F)nc(C#CCO)cn34)cc2C)CC1 [Example 75, 4-{6-(3-hydroxyprop-1-yn-1-yl)-8-[(3,3,3-trifluoropropyl)amino]imidazo[1,2-a]pyrazin-3-yl}-N-(1-methoxycyclopropyl)-2-methylbenzamide]	–	310 nM
